PubChem BioAssay (NCI)
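Cells were grown in 96-well plates and exposed to each compound for 48 hours at five concentrations; endpoints were interpolated linearly between bracketing concentrations, or set to the highest concentration if not reached. GI50 = concentration required for 50% inhibition of growth. TGI: total growth inhibition.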

Legend:
Assay in all cases: DTP human tumour cell line panel, 48 h
HOP-62 NSCLC = tested on: HOP-62 NSCLC
HCC-2998 colon = tested on: HCC-2998 colon
OVCAR-5 ovarian = tested on: OVCAR-5 ovarian
NCI-H23 lung = tested on: NCI-H23 lung
OVCAR-4 ovarian = tested on: OVCAR-4 ovarian
PC-3 prostate = tested on: PC-3 prostate
SK-MEL-5 melanoma = tested on: SK-MEL-5 melanoma
A498 renal = tested on: A498 renal
MCF7 breast = tested on: MCF7 breast
EKVX NSCLC = tested on: EKVX NSCLC
CCRF-CEM leukemia = tested on: CCRF-CEM leukemia
MALME-3M melanoma = tested on: MALME-3M melanoma
HS 578T breast = tested on: HS 578T breast
SNB-19 CNS = tested on: SNB-19 CNS
MDA-MB-231 breast = tested on: MDA-MB-231 breast
NCI-H522 lung = tested on: NCI-H522 lung
IGROV1 ovarian = tested on: IGROV1 ovarian
HCT-15 colon = tested on: HCT-15 colon
SW-620 colon = tested on: SW-620 colon
TK-10 renal = tested on: TK-10 renal
SF-539 CNS = tested on: SF-539 CNS
KM12 colon = tested on: KM12 colon
SNB-75 CNS = tested on: SNB-75 CNS
MOLT-4 leukemia = tested on: MOLT-4 leukemia
SK-MEL-2 melanoma = tested on: SK-MEL-2 melanoma
HOP-92 NSCLC = tested on: HOP-92 NSCLC
SK-OV-3 ovarian = tested on: SK-OV-3 ovarian
SR leukemia = tested on: SR leukemia
CAKI-1 renal = tested on: CAKI-1 renal
ACHN renal = tested on: ACHN renal
UACC-257 melanoma = tested on: UACC-257 melanoma
K-562 leukemia = tested on: K-562 leukemia
U251 CNS = tested on: U251 CNS
T-47D breast = tested on: T-47D breast
UACC-62 melanoma = tested on: UACC-62 melanoma
SF-268 CNS = tested on: SF-268 CNS
RXF 393 renal = tested on: RXF 393 renal
M14 melanoma = tested on: M14 melanoma
SN12C renal = tested on: SN12C renal
NCI-H226 lung = tested on: NCI-H226 lung
NCI-H460 lung = tested on: NCI-H460 lung
A549 NSCLC = tested on: A549 NSCLC
786-0 renal = tested on: 786-0 renal
BT-549 breast = tested on: BT-549 breast
NCI/ADR-RES ovarian = tested on: NCI/ADR-RES ovarian
HT29 colon = tested on: HT29 colon
SK-MEL-28 melanoma = tested on: SK-MEL-28 melanoma
OVCAR-8 ovarian = tested on: OVCAR-8 ovarian
UO-31 renal = tested on: UO-31 renal
SF-295 CNS = tested on: SF-295 CNS
COLO 205 colon = tested on: COLO 205 colon
HL-60(TB) leukemia = tested on: HL-60(TB) leukemia
DU-145 prostate = tested on: DU-145 prostate
MDA-MB-435 = tested on: MDA-MB-435
RPMI-8226 leukemia = tested on: RPMI-8226 leukemia
LOX IMVI melanoma = tested on: LOX IMVI melanoma
OVCAR-3 ovarian = tested on: OVCAR-3 ovarian
HCT-116 colon = tested on: HCT-116 colon

## Cc1ccc(NS(=O)(=O)c2cc(C)ccc2C)cc1
HOP-62 NSCLC
  GI50: 4.49 µM
  TGI: > 100 µM
HCC-2998 colon
  GI50: 7 µM
  TGI: 28 µM
OVCAR-5 ovarian
  GI50: 15.4 µM
  TGI: 72.4 µM
NCI-H23 lung
  GI50: 4.65 µM
  TGI: 50.5 µM
OVCAR-4 ovarian
  GI50: 20.9 µM
  TGI: > 100 µM
PC-3 prostate
  GI50: 11.4 µM
  TGI: 66.5 µM
SK-MEL-5 melanoma
  GI50: 2.79 µM
  TGI: 13.8 µM
A498 renal
  GI50: 2.54 µM
  TGI: 15.4 µM
MCF7 breast
  GI50: 3.59 µM
  TGI: 83 µM
EKVX NSCLC
  GI50: 11.8 µM
  TGI: 92.7 µM
CCRF-CEM leukemia
  GI50: 6.19 µM
  TGI: > 100 µM
MALME-3M melanoma
  GI50: 5.36 µM
  TGI: 38.6 µM
HS 578T breast
  GI50: 10.9 µM
  TGI: 77.7 µM
SNB-19 CNS
  GI50: 4.36 µM
  TGI: > 100 µM
MDA-MB-231 breast
  GI50: 4.44 µM
  TGI: 25.7 µM
NCI-H522 lung
  GI50: 2.02 µM
  TGI: 7.61 µM
IGROV1 ovarian
  GI50: 7.02 µM
  TGI: > 100 µM
HCT-15 colon
  GI50: 2.46 µM
  TGI: 33.9 µM
SW-620 colon
  GI50: 2.58 µM
  TGI: > 100 µM
TK-10 renal
  GI50: 10.2 µM
  TGI: 37.7 µM
SF-539 CNS
  GI50: 4.21 µM
  TGI: 15.1 µM
KM12 colon
  GI50: 1.73 µM
  TGI: 16.5 µM
SNB-75 CNS
  GI50: 3.15 µM
  TGI: 24.8 µM
MOLT-4 leukemia
  GI50: 5.43 µM
  TGI: > 100 µM
SK-MEL-2 melanoma
  GI50: 3.2 µM
  TGI: 9.64 µM
HOP-92 NSCLC
  GI50: 12.9 µM
  TGI: 34.6 µM
SK-OV-3 ovarian
  GI50: 3.68 µM
  TGI: 21.3 µM
SR leukemia
  GI50: 1.18 µM
  TGI: 16.5 µM
CAKI-1 renal
  GI50: 3.25 µM
  TGI: 29.2 µM
ACHN renal
  GI50: 12.7 µM
  TGI: 90 µM
UACC-257 melanoma
  GI50: 10.2 µM
  TGI: 47.4 µM
K-562 leukemia
  GI50: 0.761 µM
  TGI: 29.4 µM
U251 CNS
  GI50: 4.25 µM
  TGI: 23.8 µM
T-47D breast
  GI50: 6.09 µM
  TGI: > 100 µM
UACC-62 melanoma
  GI50: 3.08 µM
  TGI: 19.9 µM
SF-268 CNS
  GI50: 7 µM
  TGI: 35.2 µM
RXF 393 renal
  GI50: 2.9 µM
  TGI: 16.7 µM
M14 melanoma
  GI50: 2.43 µM
  TGI: 11 µM
SN12C renal
  GI50: 5.89 µM
  TGI: 19.9 µM
NCI-H226 lung
  GI50: 15.3 µM
  TGI: 70.4 µM
NCI-H460 lung
  GI50: 3.4 µM
  TGI: 13.5 µM
A549 NSCLC
  GI50: 4.78 µM
  TGI: 38 µM
786-0 renal
  GI50: 10.6 µM
  TGI: 31.4 µM
BT-549 breast
  GI50: 9.62 µM
  TGI: 27.4 µM
NCI/ADR-RES ovarian
  GI50: 1.38 µM
  TGI: 8.95 µM
HT29 colon
  GI50: 2.84 µM
  TGI: 12.3 µM
SK-MEL-28 melanoma
  GI50: 10.7 µM
  TGI: 37.3 µM
OVCAR-8 ovarian
  GI50: 5.94 µM
  TGI: 42.7 µM
UO-31 renal
  GI50: 12.1 µM
  TGI: 72 µM
SF-295 CNS
  GI50: 2.62 µM
  TGI: 19.8 µM
COLO 205 colon
  GI50: 3.49 µM
  TGI: 14.7 µM
HL-60(TB) leukemia
  GI50: 3.65 µM
  TGI: 27 µM
DU-145 prostate
  GI50: 6.17 µM
  TGI: 28.1 µM
MDA-MB-435
  GI50: 0.351 µM
  TGI: 2.57 µM
RPMI-8226 leukemia
  GI50: 12.7 µM
  TGI: > 100 µM
LOX IMVI melanoma
  GI50: 5.13 µM
  TGI: 22.5 µM
OVCAR-3 ovarian
  GI50: 2.53 µM
  TGI: 7.12 µM
HCT-116 colon
  GI50: 3.55 µM
  TGI: 20.4 µM
